According to patent publication US20220372031A1, “NOVEL TRICYCLIC AROMATIC HETEROCYCLIC COMPOUND, PREPARATION METHOD THEREFOR, PHARMACEUTICAL COMPOSITION AND APPLICATION THEREOF” (SHANGHAI LONGWOOD BIOPHARMACEUTICALS CO., LTD., priority 2019, published 2022):

Target: T1, PD-1/PD-L1 (Homo sapiens, UniProt Q9NZQ7)
T1 construct: Recombinant human PD-L1 protein (19-238) with a His-tagged at the C-terminus; purchased AcroBiosystems PD1-H5229 (PD-L1); PD1-H5257 (PD-1)
Assay: PD-1/PD-L1 homogeneous time-resolved fluorescence (HTRF) binding assay
Settings: PD-1/PD-L1 HTRF binding, ~3 nM PD1, 10 nM PD-L1, 25° C., PBS pH 7.4
Protocol: Assays were performed in standard black 384-well polystyrene plates and a final volume was 20 μL. The inhibitor was first serially diluted with DMSO and added to the wells of the plate, followed by the addition of other reaction components. The final concentration of DMSO in the assay was 1%. Assays were performed at 25° C. in PBS buffer (pH 7.4) containing 0.05% Tween-20 and 0.1% BSA. Recombinant human PD-L1 protein (19-238) with a His-tagged at the C-terminus was purchased from AcroBiosystems (PD1-H5229). Recombinant human PD-1 protein (25-167) with an Fc tag at the C-terminus was also purchased from AcroBiosystems (PD1-H5257). The PD-L1 and PD-1 proteins were diluted in assay buffer and then […] of the solution was extracted and added to the wells of the plate. Plates were centrifuged and proteins and inhibitors were preincubated for 40 minutes. After incubation, 0.1 μl of HTRF detection buffer containing europium […] labeled anti-human IgG (PerkinElmer-AD0212), Fc-specific and anti-His SureLight®-Allophycocyanin (APC, PerkinElmer-AD0059H) conjugated antibodies was added. After centrifugation, the plates were incubated at 25° C. for 60 minutes. Data was read in a PHERAstar FS plate reader (665 nm/620 nm ratio). Final concentrations in the assay were ˜3 nM PD1, 10 nM PD-L1, 1 nM europium anti-human IgG, and 20 nM anti-His-allophycocyanin. Activity data were fitted using GraphPad Prism 5_0 software to derive IC50 values for inhibitors.

T1 sequence (Q9NZQ7 19-238): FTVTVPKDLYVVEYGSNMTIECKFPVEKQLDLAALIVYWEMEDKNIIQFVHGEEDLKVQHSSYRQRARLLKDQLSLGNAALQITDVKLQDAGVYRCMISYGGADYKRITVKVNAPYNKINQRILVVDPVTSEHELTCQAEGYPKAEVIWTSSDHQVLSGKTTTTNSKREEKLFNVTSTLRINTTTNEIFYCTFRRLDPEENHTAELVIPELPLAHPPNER

IC50 [nM] | Structure (SMILES)
≤ 10 | COc1nc(-c2cccc(-c3cccc(-c4cc5cc6c(c(C#N)c5o4)CC[C@H]6N4CC[C@@H](C(=O)NS(=O)(=O)C5CC5)C4)c3Cl)c2C)cnc1CN1CC[C@@H](O)C1 [Compound 262]
≤ 10 | COc1nc(-c2cccc(-c3cccc(-c4cc5cc6c(c(C#N)c5o4)CC[C@H]6N4CC[C@@H](C(=O)NS(=O)(=O)C5CC5)C4)c3C)c2Cl)cnc1CN1CC[C@@H](O)C1 [Compound 263]
≤ 10 | COc1nc(-c2cccc(-c3cccc(-c4cc5cc6c(c(C#N)c5o4)CC[C@H]6N4CC[C@@H](C(=O)NS(=O)(=O)C5(C)CC5)C4)c3C)c2C)cnc1CN1CC[C@@H](O)C1 [Compound 264]
≤ 10 | COc1nc(-c2cccc(-c3cccc(-c4cc5cc6c(c(C#N)c5o4)CC[C@H]6N4CC[C@@H](C(=O)NS(=O)(=O)C5(C)CC5)C4)c3Cl)c2Cl)cnc1CN1CC[C@@H](O)C1 [Compound 265]
≤ 10 | COc1nc(-c2cccc(-c3cccc(-c4cc5cc6c(c(C#N)c5o4)CC[C@H]6N4CC[C@@H](C(=O)NS(=O)(=O)C5(C)CC5)C4)c3Cl)c2C)cnc1CN1CC[C@@H](O)C1 [Compound 266]
≤ 10 | COc1nc(-c2cccc(-c3cccc(-c4cc5cc6c(c(C#N)c5o4)CC[C@H]6N4CC[C@@H](C(=O)NS(=O)(=O)C5(C)CC5)C4)c3C)c2Cl)cnc1CN1CC[C@@H](O)C1 [Compound 267]

Further lines, the compound ahead of its results:

Structure (SMILES) | IC50 [nM]
COc1nc(-c2cccc(-c3cccc(-c4cc5cc6c(c(C#N)c5o4)CC[C@H]6N4CC[C@@H](C(=O)NS(=O)(=O)C5CC5)C4)c3Cl)c2Cl)cnc1CN1CC[C@@H](O)C1 [Compound 261] | ≤ 10
COc1nc(-c2cccc(-c3cccc(-c4nc5cc6c(c(C#N)c5o4)CC[C@H]6N4CC[C@@H](C(=O)O)C4)c3Cl)c2C)cnc1CNC[C@@H]1CCC(=O)N1 [Compound 268] | ≤ 10
COc1nc(-c2cccc(-c3cccc(-c4cc5cc6c(c(C#N)c5o4)CC[C@H]6N4CC[C@@H](C(=O)O)C4)c3Cl)c2C)cnc1CNC[C@@H]1CCC(=O)N1 [Compound 271] | ≤ 10
Cc1c(Nc2nccc3cc(CNC[C@@H]4CCC(=O)N4)cnc23)cccc1-c1cccc(-c2cc3cc4c(c(C#N)c3o2)CC[C@H]4N2CC[C@@H](C(=O)O)C2)c1Cl [Compound 274] | ≤ 10
Cc1c(Nc2nccc3cc(CN4CC[C@@H](O)C4)cnc23)cccc1-c1cccc(-c2cc3c4c(cc([N+](=O)[O-])c3o2)C(N2CC(C(=O)O)C2)CCC4)c1C (some centres unmarked) [Compound 280] | > 100
